Data taken from patent US6593358B1, “Thienyl-pyrazoles and their use for controlling pests” (Nihon Bayer Agrochem K.K., priority 1999, dated 2003).

Experiments:
Meloidogyne incognita = assay: Test against Meloidogyne spp. (soil pot test); assay type: in vivo; conditions: soil contaminated with Meloidogyne incognita, final concentration 50 ppm; tomato (Kurihara) in pots, greenhouse 4 weeks; from root knot index
Procedure: Test Against Meloidogyne spp. (Soil Pot Test)
Preparation of Test Agent:
1 Part of the active compound is impregnated to 99 parts of pumice to obtain fine granules.
The active compound prepared as mentioned above is added to soil contaminated with Meloidogyne incognita to a final concentration of 50 ppm and then homogeneously mixed by stirring. Then a pot (1/5000 are) was filled with the soil. About 20 seeds of tomato (variety: Kurihara) were sown per pot. After cultivation in a greenhouse for 4 weeks, they were carefully pulled out not to damage the root and the root knot index and the controlling effect of the compound tested were determined as follows:
Degree of damage 0: No knot was formed (Complete control).
1: A few knots were formed.
2: Knots were formed to a medium extent.
3: Knots were formed to an intense extent.
4: Knots were formed to the most intense extent (which corresponds to non-treatment).
Based on the degree of damage acording to the aforementioned standard (0-4), the root knot index can be determined as follows (Equation 1) [formula]
The controlling effect which can be achieved by applying compounds according to the present invention can then be determined as follows (Equation 2): [formula]
The evaluation of the controlling effect towards nematodes is then done by connecting the values of the controlling effect with the following standards (a-d): […]

SMILES | melting point | Evaluation of controlling effect (Meloidogyne incognita)
CCCCc1cc(-c2cccs2)n[nH]1 [Compound 82, 3-(2-thienyl)-5-n-butylpyrazole] | 47 to 48 °C | a (Controlling effect 100-71%)
CCCCCc1cc(-c2cccs2)n[nH]1 [Compound 83, 3-(2-thienyl)-5-n-pentylpyrazole] | 68 to 73 °C | a (Controlling effect 100-71%)

Now from value to compound, other results behind:

melting point | SMILES | Evaluation of controlling effect (Meloidogyne incognita)
134 to 138 °C | ClCCOc1cc(-c2cccs2)n[nH]1 | 
144 to 146 °C | Oc1cc(-c2cccs2)n[nH]1 | 
53 to 55 °C | CCCCCCc1cc(-c2cccs2)n[nH]1 | 
133 to 135 °C | Cc1cc(-c2cccs2)n[nH]1 | 
